Consider 3 molecules from ChEMBL document CHEMBL4340530, “Peptide-based covalent inhibitors of MALT1 paracaspase” (Bioorg Med Chem Lett, 2019).

The target in test [1] is T1, Cathepsin L2 (Homo sapiens) (UniProt O60911).
T1 sequence (whole entry): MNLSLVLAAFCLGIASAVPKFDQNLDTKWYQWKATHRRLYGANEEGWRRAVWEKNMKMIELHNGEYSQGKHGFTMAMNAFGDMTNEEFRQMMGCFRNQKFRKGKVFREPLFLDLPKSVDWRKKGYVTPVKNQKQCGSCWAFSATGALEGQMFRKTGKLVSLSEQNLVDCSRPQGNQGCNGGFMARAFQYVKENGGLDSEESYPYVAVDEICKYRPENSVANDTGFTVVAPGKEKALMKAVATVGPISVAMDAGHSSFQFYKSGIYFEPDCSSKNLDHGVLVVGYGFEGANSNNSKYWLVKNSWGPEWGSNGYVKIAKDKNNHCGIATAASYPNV
Put plainly: Inhibition of cathepsin V (unknown origin) at 1 uM relative to control.

For test [2], the target named is Cathepsin B (Homo sapiens) (UniProt P07858). Briefly: Inhibition of cathepsin B (unknown origin) at 1 uM relative to control.
Test [3] addresses T2, Trypsin (Homo sapiens) (UniProt P07477+P07478+P35030). Put plainly: Inhibition of trypsin (unknown origin) at 100 nM relative to control. In kind it is protein assay.
For test [4], the target named is T3, Calpain1/2 (Homo sapiens) (UniProt P17655+P07384). Briefly: Inhibition of calpain (unknown origin) at 100 nM relative to control. In kind it is protein assay.
T3 sequence (P07384 whole entry, looked up): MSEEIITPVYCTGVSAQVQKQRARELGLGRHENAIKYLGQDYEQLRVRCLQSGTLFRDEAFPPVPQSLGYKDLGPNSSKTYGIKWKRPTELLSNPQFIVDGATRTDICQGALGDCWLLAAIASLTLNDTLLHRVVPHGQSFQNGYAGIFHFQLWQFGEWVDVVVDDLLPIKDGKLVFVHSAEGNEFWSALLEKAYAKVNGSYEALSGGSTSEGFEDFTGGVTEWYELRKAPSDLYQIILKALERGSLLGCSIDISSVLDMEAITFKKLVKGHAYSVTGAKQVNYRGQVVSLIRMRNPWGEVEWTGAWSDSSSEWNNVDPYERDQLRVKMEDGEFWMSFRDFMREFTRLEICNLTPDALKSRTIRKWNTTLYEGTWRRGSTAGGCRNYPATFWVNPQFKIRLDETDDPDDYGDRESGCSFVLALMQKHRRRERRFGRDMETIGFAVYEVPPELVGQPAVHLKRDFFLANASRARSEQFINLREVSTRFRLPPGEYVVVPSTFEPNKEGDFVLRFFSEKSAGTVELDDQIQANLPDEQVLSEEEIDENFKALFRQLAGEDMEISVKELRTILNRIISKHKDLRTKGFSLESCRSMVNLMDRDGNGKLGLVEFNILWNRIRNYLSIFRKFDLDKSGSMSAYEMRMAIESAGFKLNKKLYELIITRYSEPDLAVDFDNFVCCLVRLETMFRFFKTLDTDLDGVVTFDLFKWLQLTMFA
T3 sequence (P17655 whole entry, looked up): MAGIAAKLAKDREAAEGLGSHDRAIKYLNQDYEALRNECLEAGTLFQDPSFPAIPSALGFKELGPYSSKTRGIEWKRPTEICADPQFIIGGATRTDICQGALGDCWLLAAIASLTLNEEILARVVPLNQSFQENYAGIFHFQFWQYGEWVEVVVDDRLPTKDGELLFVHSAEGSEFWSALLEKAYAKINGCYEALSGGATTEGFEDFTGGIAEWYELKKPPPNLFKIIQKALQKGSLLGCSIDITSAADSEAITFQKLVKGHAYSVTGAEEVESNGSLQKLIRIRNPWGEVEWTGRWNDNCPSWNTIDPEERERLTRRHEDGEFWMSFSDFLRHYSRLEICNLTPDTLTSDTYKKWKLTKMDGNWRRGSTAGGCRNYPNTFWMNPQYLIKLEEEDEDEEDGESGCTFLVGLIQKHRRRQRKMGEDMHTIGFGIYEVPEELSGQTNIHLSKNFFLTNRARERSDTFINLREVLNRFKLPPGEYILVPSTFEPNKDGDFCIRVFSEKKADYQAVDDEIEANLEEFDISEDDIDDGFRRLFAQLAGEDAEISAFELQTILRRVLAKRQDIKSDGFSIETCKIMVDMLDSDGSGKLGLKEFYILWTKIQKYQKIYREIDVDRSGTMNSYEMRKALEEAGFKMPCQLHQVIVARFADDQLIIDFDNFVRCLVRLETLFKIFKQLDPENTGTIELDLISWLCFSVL
Test [5] concerns the target T3, Calpain1/2 (Homo sapiens). Put plainly: Inhibition of calpain (unknown origin) at 10 uM relative to control. It counts as protein assay.
Test [6] deals with Prothrombin (Homo sapiens) (UniProt P00734). Briefly: Inhibition of thrombin (unknown origin) at 100 nM relative to control.
The target of test [7] is Cathepsin S (Homo sapiens) (UniProt P25774). Briefly: Inhibition of cathepsin S (unknown origin) at 10 uM relative to control.
Cathepsin S (Homo sapiens), sequence (P25774 115-331 limits assumed): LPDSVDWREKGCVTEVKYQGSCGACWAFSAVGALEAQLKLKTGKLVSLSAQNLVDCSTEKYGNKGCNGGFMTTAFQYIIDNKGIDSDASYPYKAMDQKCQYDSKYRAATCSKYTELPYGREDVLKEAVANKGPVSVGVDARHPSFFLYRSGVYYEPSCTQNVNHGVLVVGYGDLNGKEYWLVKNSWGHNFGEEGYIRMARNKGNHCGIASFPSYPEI
Test [8] has as its target T1, Cathepsin L2 (Homo sapiens). Put plainly: Inhibition of cathepsin V (unknown origin) at 100 nM relative to control.
Test [9] has as its target T4, Cathepsin K (Homo sapiens) (UniProt P43235).
T4 sequence (whole entry): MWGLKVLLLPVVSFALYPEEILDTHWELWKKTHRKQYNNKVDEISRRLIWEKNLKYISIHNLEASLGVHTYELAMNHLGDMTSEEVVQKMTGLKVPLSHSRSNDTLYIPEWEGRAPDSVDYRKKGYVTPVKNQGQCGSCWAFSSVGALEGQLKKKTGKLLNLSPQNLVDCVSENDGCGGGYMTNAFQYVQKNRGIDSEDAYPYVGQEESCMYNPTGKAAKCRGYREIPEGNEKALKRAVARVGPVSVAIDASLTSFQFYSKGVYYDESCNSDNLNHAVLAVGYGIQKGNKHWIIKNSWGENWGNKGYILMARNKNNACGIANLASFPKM
Put plainly: Inhibition of cathepsin K (unknown origin) at 1 uM relative to control.

The target in test [10] is T2, Trypsin (Homo sapiens). Put plainly: Inhibition of trypsin (unknown origin) at 1 uM relative to control. In kind it is protein assay.
In test [11] the target is T3, Calpain1/2 (Homo sapiens). Put plainly: Inhibition of calpain (unknown origin) at 1 uM relative to control. In kind it is protein assay.
The target in test [12] is Tryptase beta-2 (Homo sapiens) (UniProt P20231). Put plainly: Inhibition of tryptase b2 (unknown origin) at 1 uM relative to control.
Tryptase beta-2 (Homo sapiens), sequence (P20231 whole entry): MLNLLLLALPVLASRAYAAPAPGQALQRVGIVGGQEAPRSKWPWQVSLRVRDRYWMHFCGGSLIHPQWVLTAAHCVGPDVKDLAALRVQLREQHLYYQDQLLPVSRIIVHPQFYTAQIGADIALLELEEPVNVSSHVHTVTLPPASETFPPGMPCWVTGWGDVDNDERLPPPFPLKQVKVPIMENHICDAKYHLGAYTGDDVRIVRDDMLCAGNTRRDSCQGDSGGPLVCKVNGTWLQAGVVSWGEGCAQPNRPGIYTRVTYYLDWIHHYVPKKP
Test [13] deals with Cathepsin B (Homo sapiens) (UniProt P07858). Put plainly: Inhibition of cathepsin B (unknown origin) at 10 uM relative to control.
The target of test [14] is Cathepsin S (Homo sapiens) (UniProt P25774). Put plainly: Inhibition of cathepsin S (unknown origin) at 100 nM relative to control.
In test [15] the target is T1, Cathepsin L2 (Homo sapiens). Briefly: Inhibition of cathepsin V (unknown origin) at 10 uM relative to control.
The target of test [16] is Tryptase beta-2 (Homo sapiens) (UniProt P20231). Put plainly: Inhibition of tryptase b2 (unknown origin) at 10 uM relative to control.
The target of test [17] is T2, Trypsin (Homo sapiens). Briefly: Inhibition of trypsin (unknown origin) at 10 uM relative to control. In kind it is protein assay.
In test [18] the target is Prothrombin (Homo sapiens) (UniProt P00734). Put plainly: Inhibition of thrombin (unknown origin) at 10 uM relative to control.
The target in test [19] is T4, Cathepsin K (Homo sapiens). Put plainly: Inhibition of cathepsin K (unknown origin) at 10 uM relative to control.
The target in test [20] is Cathepsin S (Homo sapiens) (UniProt P25774). Put plainly: Inhibition of cathepsin S (unknown origin) at 1 uM relative to control.
Another test has as its system OCI-Ly3. Briefly: Antiproliferative activity against human OCI-LY3 cells assessed as growth inhibition treated every 48 hrs measured after 96 hrs by CellTiter-Glo assay. It counts as functional.
Test [21] concerns the target Procathepsin L (Homo sapiens) (UniProt P07711). Briefly: Inhibition of cathepsin L (unknown origin) at 100 nM relative to control.
The target is the same in test [22]. Briefly: Inhibition of cathepsin L (unknown origin) at 10 uM relative to control.
The target in test [23] is Prothrombin (Homo sapiens) (UniProt P00734). Briefly: Inhibition of thrombin (unknown origin) at 1 uM relative to control.
In test [24] the target is Procathepsin L (Homo sapiens) (UniProt P07711). Briefly: Inhibition of cathepsin L (unknown origin) at 1 uM relative to control.
Procathepsin L (Homo sapiens), sequence (P07711 114-333 limits assumed): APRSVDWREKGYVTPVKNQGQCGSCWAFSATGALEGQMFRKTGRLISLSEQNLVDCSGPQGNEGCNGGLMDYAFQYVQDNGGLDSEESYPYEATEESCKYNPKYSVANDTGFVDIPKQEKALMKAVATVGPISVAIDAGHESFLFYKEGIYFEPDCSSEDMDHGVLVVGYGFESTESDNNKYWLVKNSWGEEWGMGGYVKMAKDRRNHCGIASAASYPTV
For test [25], the target named is Cathepsin B (Homo sapiens) (UniProt P07858). Put plainly: Inhibition of cathepsin B (unknown origin) at 100 nM relative to control.
In test [26] the target is Tryptase beta-2 (Homo sapiens) (UniProt P20231). Briefly: Inhibition of tryptase b2 (unknown origin) at 100 nM relative to control.
The target in test [27] is T4, Cathepsin K (Homo sapiens). Put plainly: Inhibition of cathepsin K (unknown origin) at 100 nM relative to control.
Test [28] addresses T5, Mucosa-associated lymphoid tissue lymphoma translocation protein 1 (Homo sapiens) (UniProt Q9UDY8).
T5 sequence (whole entry): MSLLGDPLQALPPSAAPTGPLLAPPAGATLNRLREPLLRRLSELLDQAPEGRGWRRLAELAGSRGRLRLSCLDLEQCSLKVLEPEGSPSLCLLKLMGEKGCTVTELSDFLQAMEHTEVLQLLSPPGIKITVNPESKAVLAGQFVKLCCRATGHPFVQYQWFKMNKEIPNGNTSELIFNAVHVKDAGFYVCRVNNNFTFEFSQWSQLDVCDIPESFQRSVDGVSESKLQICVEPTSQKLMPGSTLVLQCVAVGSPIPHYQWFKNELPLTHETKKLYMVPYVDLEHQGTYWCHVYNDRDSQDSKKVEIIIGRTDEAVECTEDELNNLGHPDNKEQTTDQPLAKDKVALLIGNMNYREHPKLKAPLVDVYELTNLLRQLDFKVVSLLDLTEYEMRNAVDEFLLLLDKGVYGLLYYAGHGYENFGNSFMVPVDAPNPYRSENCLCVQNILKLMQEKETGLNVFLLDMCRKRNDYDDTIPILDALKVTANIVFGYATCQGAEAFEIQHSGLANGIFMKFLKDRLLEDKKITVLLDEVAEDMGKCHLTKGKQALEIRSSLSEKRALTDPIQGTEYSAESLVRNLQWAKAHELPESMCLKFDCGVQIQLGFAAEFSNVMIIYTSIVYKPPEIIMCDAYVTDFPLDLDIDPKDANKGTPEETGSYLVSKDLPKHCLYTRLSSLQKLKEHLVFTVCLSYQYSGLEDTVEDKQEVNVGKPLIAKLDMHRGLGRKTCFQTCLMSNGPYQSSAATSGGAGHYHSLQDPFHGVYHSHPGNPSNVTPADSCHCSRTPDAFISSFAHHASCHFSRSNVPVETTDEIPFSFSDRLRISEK
Put plainly: Inhibition of MALT1 in human OCI-LY3 cells assessed as reduction in Relb cleavage at 20 uM by Western blot analysis. In kind it is cell-based.

Another test concerns OCI-Ly1. Briefly: Antiproliferative activity against human OCI-LY1 cells up to 20 uM. In kind it is functional, cell-based.
Test [29] concerns the target T6, Mucosa-associated lymphoid tissue lymphoma translocation protein 1 (Homo sapiens, UniProt Q9UDY8).
T6 sequence (Q9UDY8 whole entry): T5 sequence (whole entry)
Put plainly: Inhibition of recombinant LZ-fused MALT1 (340 to 789 residues) (unknown origin) using Ac-LRSR-AMC as substrate by fluorescence assay.

Molecules are shown by their SMILES. Calls of active or inactive are those of the source. The rule behind the calls is not given here.

For the molecule `CC(C)[C@H](NC(=O)c1ccc(Br)cc1)C(=O)N[C@@H](CO)C(=O)N[C@@H](CCCNC(=N)N)C(=O)CF`, the inhibition was 58.4% in test [1]; 99.5% in test [2]; 64% against Trypsin (Homo sapiens) [3]; 98.5% in test [4]; 105% in test [5]; 2.3% in [6]. The inhibition in test [7] worked out at 100%; in test [8], 29.8%; in test [9] it was 38.3%; at Trypsin (Homo sapiens) [10] it was 92.6%; in [11], 99.8%; in test [12], 15.3%. The inhibition came out at 100% in test [13]; 99% in test [14]; 94.1% in test [15]; 47.5% in test [16]; 94.2% on Trypsin (Homo sapiens) [17]; 41.8% in test [18]. Also, the inhibition in test [19] was 89.7%; in test [20], 100%; in test [21], 13%; in [22], 49.4%; in test [23] it was 1.1%; in test [24], 11.2%. For the same molecule, the results for the inhibition in test [25], in [26] and in [27] were 88.7%, 6.5% and 28.8%, respectively. For the same molecule, the GI50 in the test with OCI-Ly3 turned out to be 150 nM.

As to `CC(C)[C@H](NC(=O)c1ccc(Br)cc1)C(=O)N1CCCC[C@H]1C(=O)N[C@@H](CCCNC(=N)N)C(=O)CF`, the inhibition in [1] turned out to be 32.1%; in [2] it was 79.7%; at Trypsin (Homo sapiens) [3], 65%; in [4], 25.9%; in test [5], 112%; in test [6] it was 4.6%. In addition, the inhibition in test [7] is 99.7%; in test [9], 98.1%; against Trypsin (Homo sapiens) [10] it was 91%; in test [11], 76%; in test [12] it was 3.4%; in test [13], 98.2%. Besides, the inhibition came out at 82.2% in test [14]; 86.3% in [15]; 31% in test [16]; 93.7% against Trypsin (Homo sapiens) [17]; 75.8% in test [18]; 98.9% in test [19]. The inhibition in [20] came to 85.7%; in test [22] it was 36.2%; in test [23] it was 19.4%; in test [25], 10.7%; in test [26], 1%; in test [27] it was 68.7%. For the same molecule, in the test on OCI-Ly3, the GI50 was found to be 460 nM.

Consider `CCC(=O)[C@H](CCCNC(=N)N)NC(=O)[C@@H]1CCCN1C(=O)[C@@H](NC(=O)[C@H](CC(C)C)NC(=O)OCc1ccccc1)C(C)C`, for which, in test [28], the inhibition result was “inactive”. Also, the outcome with OCI-Ly1 was inactive. For the same molecule, the GI50 with OCI-Ly3 was more than 20000 nM. Further, the inhibition constant (Ki) in [29] is more than 5000 nM.
